Test results as given in patent publication US20200407717A1, “METHODS OF MODULATING ANTISENSE ACTIVITY” (Ionis Pharmaceuticals, Inc., priority 2018, published 2020).
e = 2'-O-(2-methoxyethyl) (MOE); d = 2'-deoxy (DNA)

How the values were obtained:
EGF-EGFR signaling = experiment: EGFR signaling western blot (p-EGFR, p-ERK), A431 cells; type: cell-based; settings: 2 μM for 16 hours
Procedure: In order to test the effects of a PS-ASO on EGFR signaling, A431 cells were incubated with compound no. 116847 or no PS-ASO compound for 16 hours. All cells were then treated with EGF prior to being subjected to the pulse-chase protocol described above. Cell lysates were run on a SDS-PAGE gel and analyzed by sequential western blot for phosphorylated EGFR (P-EGFR), total EGFR (T-EGFR), phosphorylated ERK (P-ERK), and total ERK (T-ERK) using the antibodies described above for EGFR, 4370 for P-ERK (Cell Signaling Technology), and 4695 for T-ERK (Cell Signaling Technology).
110080, 25690, 25699, 395251, or 395254 at 2 μM for 16 hours prior to carrying out the pulse-chase experiment described above.

EGFR = EGFR (Homo sapiens, UniProt P00533); experiment: Competitive NanoBRET binding assay; parameters: made in house; host or cells: HEK293 cells; settings: Competitive BRET vs 10 nM AF594-labeled 766636; Table 6
Procedure: NanoBRET (bioluminescence resonance energy transfer) binding assays were performed as described in Vickers and Crooke. PLOS One, 11(8), (2016). An EGFR NLuc construct was prepared by first amplifying human EGFR from the full length cDNA clone (Origene RC217223) with forward PCR primer 5′-[…]-3′ (SEQ ID NO: 1) and reverse PCR primer 5′-[…] (SEQ ID NO: 2). The amplified product was ligated into the NheI and XhoI sites of the NanoLuc expression vector pFC32K Nluc CMV-Neo (Promega). Protein was expressed in HEK293 cells and isolated using Protein G magnetic beads. For competitive BRET, the Alexafluor594-labeled modified oligonucleotide 766636 was diluted into water in opaque white 96-well plates at 10 nM and competed with 0.1-10,000 nM of unlabeled modified oligonucleotide. […] of 2× binding buffer containing […] (relative luminescence units) beads/well was added and plates were shaken for 10 minutes at room temperature. Nanoluciferase activity and BRET were measured in a Glowmax Discover plate reader and EC50 values, shown in the tables below, were calculated using GraphPad Prism. For direct BRET, Alexafluor594 modified nucleotides were diluted at 0.1-10,000 nM and experiments were performed as described above.

Sequence: GGCATATGCAGATAATGTTC (sugars from the 5' end e5 d10 e5, all phosphorothioate, methylation of C not given here) [compound 395254]
- EGFR signaling (EGF-EGFR signaling): not be impacted
- EC50 (EGFR): 1240 nM

Sequence: AGGAAGGAAGCTGGCGATCT (sugars from the 5' end e5 d10 e5, all phosphorothioate, methylation of C not given here) [compound 25690]
- EGFR signaling (EGF-EGFR signaling): not be impacted
- EC50 (EGFR): 1450 nM
